Reference: paper PMC2216842 (The Journal of General Physiology, 1994)
Like-named read-outs stand apart in the source and are kept apart here.

How the values were obtained:
[1] = test system: BTX-modified Na+ channels in GH3 cells; type: cell-based, rat; conditions: for enhancement of the inactivation of BTX-modified Na+ channels: benzocaine derivatives
[2] = test system: BTX-modified Na+ channels in GH3 cells; assay: Whole-cell voltage clamp, voltage-ramp protocol; type: cell-based, rat; conditions: for effect of external Na+ ions on binding: 0 vs 130 mM external Na+; for voltage dependence of block / IC50: voltage ramp; for voltage dependence of block: quasi steady state; for change of binding after CT treatment: 0.5 mM CT 5 min; for IC50: no external Na+
[3] = test system: unmodified Na+ channels in GH3 cells; assay: Whole-cell voltage clamp, tonic and use-dependent block of normal Na+ currents; type: cell-based, rat; conditions: 1 mM; for tonic block of normal Na+ currents: +30 mV test pulse, prepulse -130 mV; for use-dependent block of normal Na+ currents: repetitive +30 mV pulses, 25 ms at 5 Hz
[4] = Solubility in test solution; conditions: external solution, from 500 mM DMSO stock

For `CCOC(=O)c1ccc(N(C)C)cc1` [N-dimethyl benzocaine, ethyl p-dimethylamino-benzoate], the “enhancement of the inactivation of BTX-modified Na+ channels” value (shortened to “enhancement”) [1] was “failed to enhance the inactivation”, the “effect of external Na+ ions on binding” value [2] was “no effect” and the “voltage dependence of block” value [2] was “enhanced by depolarization”. For the same compound, the “left shift in steady-state inactivation” value [3] was ~ 10 mV, the “tonic block of normal Na+ currents” value [3] was “produces a tonic block” and the “use-dependent block of normal Na+ currents” value [3] was “elicits additional use-dependent block”. The solubility [4] was “could not reliably dissolve N-dimethyl benzocaine at 3 mM even after heating”.

With `CCOC(=O)c1ccc(N)cc1` [benzocaine, Benzocaine] the IC50 ([1]; read-out: concentration that inhibits 50% of BTX-modified Na+ currents (IC50), at -70 mV, GH3 cells) was 200 µM, the “effect of external Na+ ions on binding” value [2] was “do not reduce benzocaine binding” and the “change of binding after CT treatment” value ([2]; measured from -75 mV to +50 mV, 1 and 3 mM) was “greatly reduced”. The “shift of V0.5 toward the depolarizing direction” value ([2]; 1 mM benzocaine on BTX-modified channels, 130 mM external Na+) was “about 20 mV”, the IC50 ([2]; at +50 mV) was about 1200 µM and the IC50 ([2]; at -50 mV) was 300 µM. For the same compound, the “voltage dependence of block” value [2] was “greater at the resting membrane potential (-50 to -90 mV) than at positive potentials (0 to +50 mV)”, the “left shift in steady-state inactivation” value [3] was “about 20 mV” and the “tonic block of normal Na+ currents” value [3] was “produces a tonic block”. For the same compound, the “use-dependent block of normal Na+ currents” value [3] was “fails to elicit additional use-dependent block” and the solubility [4] was “poor solubility of benzocaine at concentrations higher than 3 mM”.

For `COC(=O)[C@H]1[C@@H](OC(=O)c2ccccc2)C[C@@H]2CC[C@H]1N2C` [cocaine, (-)-cocaine], the “change of binding after CT treatment” value ([2]; from 0 to +50 mV, 0.1 or 0.3 mM) was “small reduction”, the “change of binding after CT treatment” value ([2]; from -50 mV to -30 mV, 0.1 or 0.3 mM) was “slightly enhanced” and the “voltage dependence of block” value [2] was “significantly stronger at +50 mV than at -50 mV”.

With `CCOC(=O)c1cccc(O)c1` [ethyl 3-hydroxy benzoate] the “enhancement” value [1] was “acted more or less as benzocaine”.

With `CCOC(=O)c1ccc(O)cc1` [ethyl 4-hydroxy benzoate] the “enhancement” value [1] was “acted more or less as benzocaine”.

With `COC(=O)c1ccc(N)cc1` [methyl 4-amino benzoate] the “enhancement” value [1] was “acted more or less as benzocaine”.

For `CCOC(=O)c1cccc(N)c1` [tricaine], the “enhancement” value [1] was “acted more or less as benzocaine”.

In the case of batrachotoxin [BTX], the “activation threshold, more negative than that of normal Na+ currents” value ([2]; BTX-modified channels, threshold near -90 mV) is reported as ~ 50 mV.
